Experimental data published in ChEMBL document CHEMBL5291721, “A preclinical secondary pharmacology resource illuminates target-adverse drug reaction associations of marketed drugs” (Nat Commun, 2023).

How the values were obtained:
Acetylcholinesterase = Acetylcholinesterase (Homo sapiens, UniProt P22303); type: functional
[1] = biological target: T1, Alpha-1A adrenergic receptor (Homo sapiens, UniProt P35348); type: functional, cell-based
T1 sequence (P35348 whole entry): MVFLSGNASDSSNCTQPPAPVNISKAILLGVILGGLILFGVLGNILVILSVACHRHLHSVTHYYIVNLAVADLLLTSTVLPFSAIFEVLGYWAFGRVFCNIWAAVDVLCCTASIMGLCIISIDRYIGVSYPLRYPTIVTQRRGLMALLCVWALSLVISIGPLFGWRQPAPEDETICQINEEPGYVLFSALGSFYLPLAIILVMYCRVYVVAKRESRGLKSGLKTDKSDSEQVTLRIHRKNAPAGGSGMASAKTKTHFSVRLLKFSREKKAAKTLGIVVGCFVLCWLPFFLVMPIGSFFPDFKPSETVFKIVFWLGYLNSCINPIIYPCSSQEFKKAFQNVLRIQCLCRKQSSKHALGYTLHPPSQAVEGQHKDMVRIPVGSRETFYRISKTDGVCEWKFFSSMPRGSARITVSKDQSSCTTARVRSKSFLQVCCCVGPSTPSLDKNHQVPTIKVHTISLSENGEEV

[2] = biological target: T2, Alpha-2A adrenergic receptor (Homo sapiens, UniProt P08913)
T2 sequence (P08913 whole entry): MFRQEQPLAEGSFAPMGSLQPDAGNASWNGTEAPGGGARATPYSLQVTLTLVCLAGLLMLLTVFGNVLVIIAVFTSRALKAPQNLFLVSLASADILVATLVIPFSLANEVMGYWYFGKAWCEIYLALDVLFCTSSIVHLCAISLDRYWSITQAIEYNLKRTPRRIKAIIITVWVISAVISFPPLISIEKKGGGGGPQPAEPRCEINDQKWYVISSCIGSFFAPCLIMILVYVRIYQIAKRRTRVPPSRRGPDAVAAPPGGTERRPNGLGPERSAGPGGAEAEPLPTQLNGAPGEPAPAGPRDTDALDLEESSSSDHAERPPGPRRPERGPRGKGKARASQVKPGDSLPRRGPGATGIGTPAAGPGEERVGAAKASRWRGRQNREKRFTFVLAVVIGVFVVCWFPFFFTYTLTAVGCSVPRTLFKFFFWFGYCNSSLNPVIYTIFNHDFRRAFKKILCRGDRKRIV

D(1A) dopamine receptor = D(1A) dopamine receptor (Homo sapiens, UniProt P21728)
Sequence of D(1A) dopamine receptor (P21728 whole entry): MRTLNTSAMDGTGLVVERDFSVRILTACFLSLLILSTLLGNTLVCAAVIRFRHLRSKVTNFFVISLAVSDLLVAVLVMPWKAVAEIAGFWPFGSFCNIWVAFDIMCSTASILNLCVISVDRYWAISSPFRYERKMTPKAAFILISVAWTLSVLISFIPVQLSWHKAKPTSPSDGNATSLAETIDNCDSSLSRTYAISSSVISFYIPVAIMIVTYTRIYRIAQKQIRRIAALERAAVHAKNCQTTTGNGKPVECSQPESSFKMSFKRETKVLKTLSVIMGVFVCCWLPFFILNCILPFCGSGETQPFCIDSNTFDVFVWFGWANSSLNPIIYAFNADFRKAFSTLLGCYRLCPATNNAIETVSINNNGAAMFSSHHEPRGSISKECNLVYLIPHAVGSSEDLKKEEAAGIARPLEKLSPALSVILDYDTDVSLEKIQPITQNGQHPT

D(3) dopamine receptor = D(3) dopamine receptor (Homo sapiens, UniProt P35462)
Sequence of D(3) dopamine receptor (P35462 whole entry): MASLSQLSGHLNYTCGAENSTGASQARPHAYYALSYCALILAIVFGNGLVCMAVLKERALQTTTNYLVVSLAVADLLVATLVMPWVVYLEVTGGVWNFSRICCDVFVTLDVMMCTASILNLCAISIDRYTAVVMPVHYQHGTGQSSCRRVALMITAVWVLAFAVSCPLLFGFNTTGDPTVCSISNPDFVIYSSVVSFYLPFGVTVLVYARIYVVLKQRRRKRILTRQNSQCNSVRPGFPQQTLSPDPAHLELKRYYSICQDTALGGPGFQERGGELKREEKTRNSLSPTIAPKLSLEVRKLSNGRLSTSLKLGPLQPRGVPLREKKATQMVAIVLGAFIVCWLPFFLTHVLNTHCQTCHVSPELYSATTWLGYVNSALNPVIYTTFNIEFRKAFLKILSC

Prothrombin = Prothrombin (Homo sapiens, UniProt P00734); type: functional
[3] = biological target: Voltage-gated inwardly rectifying potassium channel KCNH2 (Homo sapiens, UniProt Q12809); type: functional; conditions: read-out: AC50
Sequence of Voltage-gated inwardly rectifying potassium channel KCNH2 (Q12809 whole entry): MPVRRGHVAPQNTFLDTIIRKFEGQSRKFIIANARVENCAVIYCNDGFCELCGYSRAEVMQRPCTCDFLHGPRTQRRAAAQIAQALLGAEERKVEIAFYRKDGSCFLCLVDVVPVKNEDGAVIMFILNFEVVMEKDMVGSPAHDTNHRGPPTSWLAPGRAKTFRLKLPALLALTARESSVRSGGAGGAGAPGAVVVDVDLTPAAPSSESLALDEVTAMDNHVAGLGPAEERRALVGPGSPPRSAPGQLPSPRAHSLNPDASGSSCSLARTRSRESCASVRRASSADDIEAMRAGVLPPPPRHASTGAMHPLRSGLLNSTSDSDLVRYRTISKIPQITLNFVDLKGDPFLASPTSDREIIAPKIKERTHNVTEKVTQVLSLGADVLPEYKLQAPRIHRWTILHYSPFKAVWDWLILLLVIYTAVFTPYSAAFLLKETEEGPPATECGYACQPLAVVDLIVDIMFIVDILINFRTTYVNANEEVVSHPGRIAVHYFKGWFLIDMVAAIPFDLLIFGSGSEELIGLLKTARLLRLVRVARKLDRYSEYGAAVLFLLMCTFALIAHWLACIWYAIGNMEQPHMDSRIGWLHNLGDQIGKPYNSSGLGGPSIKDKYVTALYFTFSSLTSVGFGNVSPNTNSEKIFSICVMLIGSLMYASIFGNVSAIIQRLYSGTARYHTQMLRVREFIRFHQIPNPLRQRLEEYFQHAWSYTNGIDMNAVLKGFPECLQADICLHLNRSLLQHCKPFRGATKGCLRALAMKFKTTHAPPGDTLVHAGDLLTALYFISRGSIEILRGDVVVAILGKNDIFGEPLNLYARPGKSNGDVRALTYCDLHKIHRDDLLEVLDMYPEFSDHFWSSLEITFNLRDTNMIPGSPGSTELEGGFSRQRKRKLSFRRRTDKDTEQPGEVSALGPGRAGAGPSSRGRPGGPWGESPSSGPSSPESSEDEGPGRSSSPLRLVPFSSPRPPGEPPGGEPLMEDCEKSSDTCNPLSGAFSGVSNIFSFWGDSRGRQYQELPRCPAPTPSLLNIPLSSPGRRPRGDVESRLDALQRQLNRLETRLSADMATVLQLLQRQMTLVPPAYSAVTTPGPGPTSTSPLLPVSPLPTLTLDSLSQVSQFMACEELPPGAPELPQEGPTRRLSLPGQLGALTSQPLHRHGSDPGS

[4] = biological target: cGMP-inhibited 3',5'-cyclic phosphodiesterase 3A (Homo sapiens, UniProt Q14432); type: functional
Sequence of cGMP-inhibited 3',5'-cyclic phosphodiesterase 3A (Q14432 whole entry): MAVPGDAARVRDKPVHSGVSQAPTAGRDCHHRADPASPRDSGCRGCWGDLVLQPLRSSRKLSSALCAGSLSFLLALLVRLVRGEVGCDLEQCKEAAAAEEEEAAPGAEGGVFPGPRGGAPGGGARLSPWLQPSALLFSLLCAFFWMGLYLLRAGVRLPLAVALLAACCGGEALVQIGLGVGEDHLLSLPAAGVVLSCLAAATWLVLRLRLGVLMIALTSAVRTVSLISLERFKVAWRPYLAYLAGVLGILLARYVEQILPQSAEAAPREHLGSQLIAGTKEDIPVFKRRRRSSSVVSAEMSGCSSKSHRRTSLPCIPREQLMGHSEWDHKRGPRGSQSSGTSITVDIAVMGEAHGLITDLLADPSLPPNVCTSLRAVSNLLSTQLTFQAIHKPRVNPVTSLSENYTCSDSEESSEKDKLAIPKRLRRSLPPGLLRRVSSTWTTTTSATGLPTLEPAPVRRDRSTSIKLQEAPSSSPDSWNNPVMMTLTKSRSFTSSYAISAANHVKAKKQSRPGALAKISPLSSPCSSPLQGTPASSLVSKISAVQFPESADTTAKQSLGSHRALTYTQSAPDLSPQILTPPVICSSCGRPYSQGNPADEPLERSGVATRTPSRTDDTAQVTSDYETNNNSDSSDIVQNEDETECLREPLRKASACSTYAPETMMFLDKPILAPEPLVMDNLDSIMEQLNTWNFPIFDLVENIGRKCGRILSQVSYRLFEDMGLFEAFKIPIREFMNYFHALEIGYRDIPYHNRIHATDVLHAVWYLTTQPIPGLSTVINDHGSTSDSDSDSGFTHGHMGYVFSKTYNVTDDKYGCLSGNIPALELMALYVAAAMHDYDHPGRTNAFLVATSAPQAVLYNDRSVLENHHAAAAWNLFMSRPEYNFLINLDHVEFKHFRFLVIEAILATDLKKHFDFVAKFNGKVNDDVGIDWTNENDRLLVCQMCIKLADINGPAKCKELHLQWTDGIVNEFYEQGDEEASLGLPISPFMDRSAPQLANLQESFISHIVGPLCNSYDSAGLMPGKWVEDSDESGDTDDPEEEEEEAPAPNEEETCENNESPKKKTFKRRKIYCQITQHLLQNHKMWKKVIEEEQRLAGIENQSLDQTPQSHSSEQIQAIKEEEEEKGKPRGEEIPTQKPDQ

Progesterone receptor = biological target: T3, Progesterone receptor (Homo sapiens, UniProt P06401)
T3 sequence (P06401 whole entry): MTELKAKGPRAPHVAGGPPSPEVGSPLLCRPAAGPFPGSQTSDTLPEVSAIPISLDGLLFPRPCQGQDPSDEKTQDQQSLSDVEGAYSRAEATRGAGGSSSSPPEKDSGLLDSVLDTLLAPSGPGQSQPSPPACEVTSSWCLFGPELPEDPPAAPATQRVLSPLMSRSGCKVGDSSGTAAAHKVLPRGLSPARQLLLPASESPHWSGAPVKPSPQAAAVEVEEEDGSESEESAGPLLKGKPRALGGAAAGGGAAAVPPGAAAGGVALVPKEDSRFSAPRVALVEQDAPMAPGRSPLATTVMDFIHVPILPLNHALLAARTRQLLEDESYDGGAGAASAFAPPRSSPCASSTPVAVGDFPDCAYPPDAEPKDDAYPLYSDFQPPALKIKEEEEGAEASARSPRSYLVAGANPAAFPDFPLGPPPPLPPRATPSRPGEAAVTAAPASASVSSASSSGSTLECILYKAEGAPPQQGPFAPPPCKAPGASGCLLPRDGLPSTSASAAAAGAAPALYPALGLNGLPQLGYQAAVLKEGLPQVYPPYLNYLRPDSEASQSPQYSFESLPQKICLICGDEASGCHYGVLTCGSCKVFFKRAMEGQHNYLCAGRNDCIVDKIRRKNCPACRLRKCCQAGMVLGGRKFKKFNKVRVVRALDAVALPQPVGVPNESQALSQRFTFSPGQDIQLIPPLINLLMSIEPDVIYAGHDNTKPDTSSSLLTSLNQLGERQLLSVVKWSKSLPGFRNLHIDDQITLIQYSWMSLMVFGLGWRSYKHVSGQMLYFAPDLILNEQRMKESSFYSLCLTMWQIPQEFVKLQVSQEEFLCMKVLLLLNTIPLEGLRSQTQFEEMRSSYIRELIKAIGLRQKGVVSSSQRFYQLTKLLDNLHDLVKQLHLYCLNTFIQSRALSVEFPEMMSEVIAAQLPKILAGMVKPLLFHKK

[5] = biological target: Sodium-dependent dopamine transporter (Homo sapiens, UniProt Q01959)
Sequence of Sodium-dependent dopamine transporter (Q01959 whole entry): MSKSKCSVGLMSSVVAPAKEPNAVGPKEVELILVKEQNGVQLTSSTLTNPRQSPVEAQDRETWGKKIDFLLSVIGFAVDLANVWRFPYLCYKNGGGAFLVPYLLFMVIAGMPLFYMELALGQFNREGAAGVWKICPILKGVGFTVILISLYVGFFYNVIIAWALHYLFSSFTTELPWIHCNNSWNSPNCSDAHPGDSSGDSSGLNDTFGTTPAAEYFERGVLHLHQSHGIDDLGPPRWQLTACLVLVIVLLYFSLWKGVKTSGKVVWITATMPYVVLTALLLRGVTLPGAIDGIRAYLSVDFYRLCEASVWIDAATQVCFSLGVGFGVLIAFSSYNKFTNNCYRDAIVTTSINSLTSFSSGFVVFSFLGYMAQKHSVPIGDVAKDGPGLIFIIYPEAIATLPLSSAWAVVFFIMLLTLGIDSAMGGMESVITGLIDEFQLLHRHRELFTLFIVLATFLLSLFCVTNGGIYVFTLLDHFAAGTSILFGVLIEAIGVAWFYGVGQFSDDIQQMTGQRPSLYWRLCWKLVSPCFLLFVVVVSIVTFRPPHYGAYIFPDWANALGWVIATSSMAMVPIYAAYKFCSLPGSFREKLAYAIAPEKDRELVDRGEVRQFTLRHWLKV

Thromboxane A2 receptor [6] = biological target: T4, Thromboxane A2 receptor (Homo sapiens, UniProt P21731); type: functional, cell-based
T4 sequence (P21731 whole entry): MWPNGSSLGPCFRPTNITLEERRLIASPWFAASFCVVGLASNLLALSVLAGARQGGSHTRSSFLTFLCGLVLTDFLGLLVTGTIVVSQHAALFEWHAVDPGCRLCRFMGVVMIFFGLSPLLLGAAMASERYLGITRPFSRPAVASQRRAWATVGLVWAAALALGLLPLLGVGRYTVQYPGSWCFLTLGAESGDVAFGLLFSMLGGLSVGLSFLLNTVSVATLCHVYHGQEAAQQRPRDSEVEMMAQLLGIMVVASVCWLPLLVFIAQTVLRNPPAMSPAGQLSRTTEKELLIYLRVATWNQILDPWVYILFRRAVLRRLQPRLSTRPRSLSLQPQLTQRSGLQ

Thromboxane A2 receptor [7] = biological target: T4, Thromboxane A2 receptor; type: functional, cell-based; remark: listed apart in the source
Also: assay procedure not described here.

Sequence of Acetylcholinesterase (P22303 whole entry): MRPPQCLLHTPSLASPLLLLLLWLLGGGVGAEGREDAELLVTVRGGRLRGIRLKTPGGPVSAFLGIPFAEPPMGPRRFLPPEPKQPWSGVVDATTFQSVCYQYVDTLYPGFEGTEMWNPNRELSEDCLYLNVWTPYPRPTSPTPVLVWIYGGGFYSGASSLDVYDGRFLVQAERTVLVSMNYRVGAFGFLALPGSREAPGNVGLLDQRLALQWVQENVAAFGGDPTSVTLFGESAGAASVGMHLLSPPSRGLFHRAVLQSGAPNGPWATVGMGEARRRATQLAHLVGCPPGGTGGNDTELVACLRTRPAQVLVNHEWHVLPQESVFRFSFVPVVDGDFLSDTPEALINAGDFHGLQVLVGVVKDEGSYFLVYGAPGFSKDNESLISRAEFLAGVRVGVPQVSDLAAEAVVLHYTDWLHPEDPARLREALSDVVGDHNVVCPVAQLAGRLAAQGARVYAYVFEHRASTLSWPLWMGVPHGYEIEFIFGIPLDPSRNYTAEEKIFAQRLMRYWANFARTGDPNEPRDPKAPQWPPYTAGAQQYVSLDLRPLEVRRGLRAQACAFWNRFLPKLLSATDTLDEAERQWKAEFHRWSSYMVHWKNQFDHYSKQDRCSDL

| Structure (SMILES) | AC50 (Acetylcholinesterase) [µM] | AC50 [1] [µM] | AC50 [2] [µM] | AC50 (D(1A) dopamine receptor) [µM] | AC50 (D(3) dopamine receptor) [µM] | AC50 (Prothrombin) [µM] | AC50 [3] [µM] | AC50 [4] [µM] | AC50 (Progesterone receptor) [µM] | AC50 [5] [µM] | AC50 (Thromboxane A2 receptor [6]) [µM] | AC50 (Thromboxane A2 receptor [7]) [µM] |
| --- | --- | --- | --- | --- | --- | --- | --- | --- | --- | --- | --- | --- |
| C[C@H]1O[C@@H](O[C@H]2[C@@H](O)C[C@H](O[C@H]3[C@@H](O)C[C@H](O[C@H]4CC[C@@]5(C)[C@H](CC[C@@H]6[C@@H]5CC[C@]5(C)[C@@H](C7=CC(=O)OC7)CC[C@]65O)C4)O[C@@H]3C)O[C@@H]2C)C[C@H](O)[C@@H]1O [DIGITOXIN] | > 30 | > 30 | > 30 | > 30 | > 30 | > 30 | > 30 | > 30 | > 30 | > 30 | > 30 | > 30 |
| OC(CCCN1CCCCC1)(c1ccccc1)c1ccccc1 [DIPHENIDOL] | > 30 | > 30 | > 30 | 12.5 | 2.15 | > 30 | 16 | > 30 | > 30 | > 30 | > 30 | > 30 |
| CCn1cc(C(=O)O)c(=O)c2cc(F)c(N3CCNCC3)nc21 [ENOXACIN] | > 30 | > 30 | > 30 | > 30 | > 30 | > 30 | > 30 | > 30 | > 30 | > 30 | > 30 | > 30 |
| C[C@@H](O)[C@H]1C(=O)N2C(C(=O)O)=C([C@H]3CCCO3)S[C@H]12 [FAROPENEM] | > 30 | > 30 | > 30 | > 30 | > 30 | > 30 | > 30 | > 30 | > 30 | > 30 | > 30 | > 30 |
| CCOC(=O)c1ccc(OC(=O)CCCCCNC(=N)N)cc1 [GABEXATE] | > 30 | > 30 | > 30 | > 30 | > 30 | 0.17 | 25 | > 30 | > 30 | 14.8 | > 30 | > 30 |
| CCCCC/C=C\C/C=C\C/C=C\CCCCC(=O)O [GAMOLENIC ACID] | > 30 | > 30 | > 30 | > 30 | > 30 | > 30 | > 30 | > 30 | > 30 | > 30 | > 30 | > 30 |
| COCCOc1cnc(NS(=O)(=O)c2ccccc2)nc1 [GLYMIDINE] | > 30 | > 30 | > 30 | > 30 | > 30 | > 30 | > 30 | > 30 | > 30 | > 30 | > 30 | > 30 |
| CCC(=O)O[C@]1(C(=O)COC(C)=O)CC[C@H]2[C@@H]3CCC4=CC(=O)CC[C@]4(C)[C@H]3[C@@H](O)C[C@@]21C [HYDROCORTISONE ACEPONATE] | > 30 | > 30 | > 30 | > 30 | > 30 | > 30 | > 30 | > 30 | 0.326 | > 30 | > 30 | > 30 |
| O=[N+]([O-])O[C@H]1CO[C@H]2[C@@H]1OC[C@H]2O[N+](=O)[O-] [ISOSORBIDE DINITRATE] | > 30 | > 30 | > 30 | > 30 | > 30 | > 30 | > 30 | > 30 | > 30 | > 30 | > 30 | > 30 |
| NC(=O)NCCC[C@H](N)C(=O)O [L-CITRULLINE] | > 30 | > 30 | > 30 | > 30 | > 30 | > 30 | > 30 | > 30 | > 30 | > 30 | > 30 | > 30 |
| CC(=O)O[C@H]1C[C@H](O[C@H]2[C@@H](O)C[C@H](O[C@H]3[C@@H](O)C[C@H](O[C@H]4CC[C@@]5(C)[C@H](CC[C@@H]6[C@@H]5C[C@@H](O)[C@]5(C)[C@@H](C7=CC(=O)OC7)CC[C@]65O)C4)O[C@@H]3C)O[C@@H]2C)O[C@H](C)[C@H]1O[C@@H]1O[C@H](CO)[C@@H](O)[C@H](O)[C@H]1O [LANATOSIDE C] | > 30 | > 30 | > 30 | > 30 | > 30 | > 30 | > 30 | > 30 | > 30 | > 30 | > 30 | > 30 |
| Nc1nc(N)nc(Nc2ccc([As]3SCC(CO)S3)cc2)n1 (stereo not drawn) [MELARSOPROL] | > 30 | > 30 | > 30 | > 30 | > 30 | > 30 | > 10 | > 30 | > 30 | 29.2 | > 30 | > 30 |
| Cc1cc(CCN2CCN(c3cccc(Cl)c3)CC2)n[nH]1 [MEPIPRAZOLE] | > 30 | 0.43 | 4.52 | 0.591 | 0.0358 | > 30 | 2.71 | > 30 | > 30 | 8.04 | > 30 | > 30 |
| CC[N+](C)(CC)CCOC(=O)C1c2ccccc2Oc2ccccc21 [METHANTHELINE] | > 30 | > 30 | > 30 | > 30 | > 30 | > 30 | 11 | > 30 | > 30 | > 30 | > 30 | > 30 |
